Assay results as given in patent US5882905A, “Thermostable α-L-arabinofuranosidase from Aureobasidium pullulans” (The United States of America as represented by the …, priority 1997, dated 1999).
“And” between values parts separate entries of the source, which are not always exact repeats. Identical values can stand only once. “Also recorded” adds a separate entry of the source.

Key:
α-L-AFase [1] = test: Effect of metal ions and reagents on α-L-AFase activity; type: biochemical, Aureobasidium pullulans
Method: (§1) Enzyme assay. αL-arabinofuranosidase (α-L-AFase) activity was assayed in a reaction mixture (1 ml) containing 1 mM p-nitrophenyl α-L-arabinofuranoside (pNPαAF), 50 mM acetate buffer, pH 4.5 and appropriately diluted enzyme solution. After incubation at 50° C. for 30 min, the reaction was stopped by adding ice-cold 0.5M Na2 CO3 (1 ml) and the color formed was measured at 405 nm. One unit (U) of α-L-AFase activity was defined as the amount of enzyme that liberates 1 μmol p-nitrophenol (pNP) per min in the reaction mixture under these assay conditions.
Effect of metal ions and reagents.

α-L-AFase [2] = test: Effect of L-arabinose and other sugars on α-L-AFase activity; type: biochemical, Aureobasidium pullulans
Method: as §1
Effect of L-arabinose and other sugars.

[3] = test system: Aureobasidium pullulans Y-21792; test: Effect of carbon source on growth and α-L-arabinofuranosidase production in shake flasks; type: cell-based; conditions: for Growth (A660) / L-arabinosidase (mU/ml culture) Supernatant / L-arabinosidase (mU/ml culture) Whole broth / time of maximum enzyme production, Supernatant (figure in parenthesis) / time of maximum enzyme production, Whole broth (figure in parenthesis): carbon source 1% w/v, 28° C.; for Growth (A660): 96 h, averages of duplicates; for L-arabinosidase (mU/ml culture) Supernatant / L-arabinosidase (mU/ml culture) Whole broth: maximum in time course; for time of maximum enzyme production, Supernatant (figure in parenthesis) / time of maximum enzyme production, Whole broth (figure in parenthesis): time course over 96 h; for share of the whole culture broth α-L-AFase activity that is extracellular: cultures grown on the named carbon source
Method: Organism, cultivation and enzyme production. The color variant strain NRRL Y-21792 of A. pullulans (also available as NRRL Y-12974) was obtained from the ARS culture collection, NCAUR, Peoria, Ill. The medium used for seed culture and enzyme production was CCY medium (Slininger et al., 1982, Biotechnol. Bioeng., 23:371-384) with the following composition (g/L): 10 ml of solution A, 10 ml of solution B. 100 ml of solution C, 10 g of yeast extract and 10 g of oat spelt xylan. Solution A was a trace mineral solution having the following ingredients (per L): 1.1 g of CaO, 0.4 g of ZnO, 5.4 g of FeCl3.6 H2 O, 0.25 g of CuSO4. 5H2 O, 0.24 g of CoCl2. 6H2 O, 0.06 g of H3 BO3 and 13 ml of concentrated HCl. Solution B (per L) contained 10.1 g of MgO and 45 ml of concentrated HCl. Solution C (per L) contained 64 g of urea, 12 g of KH2 PO4 and 1.8 g of Na2 HPO4. Oat spelt xylan was sterilized separately. The pH of the medium was adjusted to 5.0 with 1M HCl before inoculation. A 125-ml Erlenmeyer flask containing 50 ml of medium with oat spelt xylan (1%, w/v) as a carbon source was inoculated with a loopful of cells taken from a stock slant and incubated at 28° C. on a rotary shaker (200 rpm) for 2 days. The shake flasks (250-ml Erlenmeyer flask containing 100 ml medium with 1% oat spelt xylan) were inoculated with 2 ml of this culture and cultivated on a rotary shaker (200 rpm) at 28° C. After 3 days, the cells were removed from the culture broth by centrifugation (18,000×g, 20 min). The resulting supernatant solution was used as the crude enzyme preparation.
Medium and enzyme production. The media used for seed culture and enzyme production were prepared as described in Example 1 with the exception of the particular carbon source. The shake flasks (125-ml Erlenmeyer flask containing 50 ml medium) were inoculated with 2 ml of seed culture (prepared using L-arabinose as carbon source) and cultivated on a rotary shaker (200 rpm) at 28° C. for 4 days. At intervals, ~2 ml of the whole culture broth were withdrawn, and the cells and unutilized insoluble substrates were removed from the culture broth by centrifugation (18,000×g, 20 min).
Analytical procedures. α-L-AFase activity was assayed as described in Example 1. Cell growth was monitored by measuring optical density of the culture broth at 660 nm (A660).

purified α-L-AFase [4] = test: Substrate specificity and kinetic analysis with aryl-glycosides; type: biochemical, Aureobasidium pullulans; conditions: for Relative initial rate of hydrolysis (percentage of that obtained with pNPαAF): substrate 4 mM, enzyme 28 mU/ml, 15 min reaction
Method: as §1
(§2) Other methods. Protein was estimated by the method of Lowry et al. (1951, J. Biol. Chem., 193:265-275) with bovine serum albumin as the standard. Protein in the column effluents was monitored by measuring absorbance at 280 nm. Sodium dodecyl sulfate-polyacrylamide gel electrophoresis (SDS-PAGE) was performed on a 7.5% gel according to Laemmli (1970, Nature, 227:680-685). The molecular weight of the native enzyme was determined by gel filtration on Bio-Gel A-0.5m as described by Andrews (1965, Biochem. J., 91:595-606), using apoferritin (MW 443,000), sweet potato β-amylase (200,000), yeast alcohol dehydrogenase (150,000), bovine serum albumin (66,000) and ovalbumin (45,000) as standard proteins. […] The Km and Vmax values were determined by the double-reciprocal plot method of Lineweaver-Burk (1934, J. Am. Chem. Soc., 56:658-666) using the KINET software program. Arabinose analysis was performed by HPLC (Spectra-Physics, San Jose, Calif.) using an ion moderated partition chromatography column (Aminex HPX-87C). The column was maintained at 85° C., and the sugars were eluted with Milli-Q water at a flow rate of 0.6 ml/min. Peaks were detected by refractive index, and identified and quantified by comparison to retention times of authentic standards (L-arabinose, D-glucose, D-xylose).
Substrate specificity and kinetic analysis. Relative initial rates of hydrolysis of p-nitrophenyl-α-L-arabinopyranoside, p-nitrophenyl-β-D-glucoside, p-nitrophenyl-β-D-glucoside, p-nitrophenyl-β-D-xyloside, p-nitrophenyl-β-D-cellobioside and p-nitrophenyl-β-D-galactoside (4 mM each) by the purified α-L-AFase (28 mU/ml) were 3.4, 2.3, 1.7, 3.1, 0.0, and 0.1%, respectively (expressed as a percentage of that obtained with pNPαAF at pH 4.5 and 75° C., 15 min reaction). The rate dependence of the enzymatic reaction on the pNPαAF concentration at pH 4.5 and 75° C. followed Michaelis-Menten kinetics.

purified α-L-AFase [5] = test: Hydrolysis of arabinan, debranched arabinan and arabinoxylans (arabinose by HPLC); type: biochemical, Aureobasidium pullulans
Method: FIG. 4. Time course of arabinan (1%, w/v) hydrolysis by purified α-L-arabinofuranosidase (0.445 U/ml) from A. pullulans Y-21792 at pH 4.5 and 50° C.
as §2, with “Arabinose analysis was performed by HPLC (Spectra-Physics, San Jose, Calif.) using an ion moderated partition chromatography column (Aminex HPX-87C). The column was maintained at 85° C., and the sugars were eluted with Milli-Q water at a flow rate of 0.6 ml/min.” left out
Hydrolysis of arabinan, debranched arabinan and arabinoxylans. […] Only arabinose was detected in the reaction product. […]

[6] = target: α-L-AFase from P. capsulatum; conditions: Filho et al.; read-out: Ki (competitive inhibition); cited from earlier work
[7] = test system: α-L-AFase from A. nidulans; conditions: L-Arabinose at 80 mM; Fernandez-Espinar et al.; cited from earlier work

[Mg+2] [Mg^2+]
requirement of metal ion for activity (α-L-AFase [1]; 5 mM): did not require

O=C(O)c1cc[c]([Hg][Cl])cc1 [pCMB, p-chloromercuribenzoic acid, reference compound]
effect on enzyme activity (α-L-AFase [1]; 0.2 mM): not affected; also recorded: not inhibited

O=C[C@@H](O)[C@@H](O)[C@H](O)[C@H](O)CO [mannose]
inhibition of α-L-AFase activity (α-L-AFase [2]; each at 0.11M): did not inhibit

OC[C@@H](O)[C@H](O)[C@@H](O)CO [xylitol]
inhibition of α-L-AFase activity (α-L-AFase [2]; each at 0.11M): did not inhibit | Growth (A660) [3]: 9.1 | L-arabinosidase (mU/ml culture) Supernatant [3]: 47 mU/ml culture | L-arabinosidase (mU/ml culture) Whole broth [3]: 94 mU/ml culture | time of maximum enzyme production, Supernatant (figure in parenthesis) [3]: 58 | time of maximum enzyme production, Whole broth (figure in parenthesis) [3]: 48

O=[N+]([O-])c1ccc(O[C@@H]2OC[C@@H](O)[C@H](O)[C@H]2O)cc1 [p-nitrophenyl-β-D-xyloside]
Relative initial rate of hydrolysis (percentage of that obtained with pNPαAF) (purified α-L-AFase [4]; pH 4.5 and 75° C.): 3.1%

arabinogalactan
Growth (A660) [3]: 3.1 | L-arabinosidase (mU/ml culture) Supernatant [3]: 9 mU/ml culture | L-arabinosidase (mU/ml culture) Whole broth [3]: 45 mU/ml culture | time of maximum enzyme production, Supernatant (figure in parenthesis) [3]: 34 | time of maximum enzyme production, Whole broth (figure in parenthesis) [3]: 34 | arabinose detected by HPLC as product of hydrolysis (purified α-L-AFase [5]): no arabinose was detected

[Co+2] [Co^2+]
requirement of metal ion for activity (α-L-AFase [1]; 0.5 mM): did not require

OC[C@H](O)C(O)[C@@H](O)CO [L-arabitol]
inhibition of α-L-AFase activity (α-L-AFase [2]; each at 0.11M): did not inhibit | Growth (A660) [3]: 7.2 | L-arabinosidase (mU/ml culture) Supernatant [3]: 95 mU/ml culture | L-arabinosidase (mU/ml culture) Whole broth [3]: 441 mU/ml culture | time of maximum enzyme production, Supernatant (figure in parenthesis) [3]: 48 | time of maximum enzyme production, Whole broth (figure in parenthesis) [3]: 34 | share of the whole culture broth α-L-AFase activity that is extracellular [3]: 22%

O=[N+]([O-])c1ccc(O[C@@H]2O[C@H](CO)[C@@H](O[C@@H]3O[C@H](CO)[C@@H](O)[C@H](O)[C@H]3O)[C@H](O)[C@H]2O)cc1 [p-nitrophenyl-β-D-cellobioside]
Relative initial rate of hydrolysis (percentage of that obtained with pNPαAF) (purified α-L-AFase [4]; pH 4.5 and 75° C.): 0.0%

[Mn+2] [Mn^2+]
requirement of metal ion for activity (α-L-AFase [1]; 5 mM): did not require

O=[N+]([O-])c1ccc(O[C@@H]2O[C@H](CO)[C@H](O)[C@H](O)[C@H]2O)cc1 [p-nitrophenyl-β-D-galactoside]
Relative initial rate of hydrolysis (percentage of that obtained with pNPαAF) (purified α-L-AFase [4]; pH 4.5 and 75° C.): 0.1%

O=[N+]([O-])c1ccc(O[C@@H]2OC[C@H](O)[C@H](O)[C@H]2O)cc1 [p-nitrophenyl-α-L-arabinopyranoside]
Relative initial rate of hydrolysis (percentage of that obtained with pNPαAF) (purified α-L-AFase [4]; pH 4.5 and 75° C.): 3.4%

O=[N+]([O-])c1ccc(O[C@@H]2O[C@@H](CO)[C@H](O)[C@H]2O)cc1 [pNPαAF, p-nitrophenyl α-L-arabinofuranoside]
Vmax (purified α-L-AFase [4]; pH 4.5 and 75° C., reciprocal plot): 6.99 μmol pNP. min^-1.mg^-1 protein | Km (purified α-L-AFase [4]; pH 4.5 and 75° C., reciprocal plot, read-out: apparent Km): 260 µM | Substrate inhibition (purified α-L-AFase [4]; tested up to 8 mM): not observed; also recorded: not inhibited

O=[N+]([O-])c1ccc(O[C@@H]2O[C@H](CO)[C@@H](O)[C@H](O)[C@H]2O)cc1 [p-nitrophenyl-β-D-glucoside]
Relative initial rate of hydrolysis (percentage of that obtained with pNPαAF) (purified α-L-AFase [4]; pH 4.5 and 75° C.): 2.3% and 1.7%

[Ca+2] [Ca^2+]
requirement of metal ion for activity (α-L-AFase [1]; 5 mM): did not require

O[C@H](CS)[C@H](O)CS (racemic) [DTT, dithiothreitol, reference compound]
effect on enzyme activity (α-L-AFase [1]; 10 mM): not affected; also recorded: not inhibited

O=C[C@H](O)[C@@H](O)[C@H](O)CO [Xylose]
inhibition of α-L-AFase activity (α-L-AFase [2]; each at 0.11M): did not inhibit | Growth (A660) [3]: 8.0 | L-arabinosidase (mU/ml culture) Supernatant [3]: 88 mU/ml culture | L-arabinosidase (mU/ml culture) Whole broth [3]: 129 mU/ml culture | time of maximum enzyme production, Supernatant (figure in parenthesis) [3]: 48 | time of maximum enzyme production, Whole broth (figure in parenthesis) [3]: 48 | share of the whole culture broth α-L-AFase activity that is extracellular [3]: About 70%

O=C[C@H](O)[C@@H](O)[C@@H](O)[C@H](O)CO [galactose]
inhibition of α-L-AFase activity (α-L-AFase [2]; each at 0.11M): did not inhibit

O=C[C@H](O)[C@@H](O)[C@@H](O)CO [L-arabinose]
inhibition of α-L-AFase activity (α-L-AFase [2]; up to 1.2M (21.6%)): substantially no inhibition; also recorded: not at all inhibitory; also recorded: not inhibited | Growth (A660) [3]: 7.6 | L-arabinosidase (mU/ml culture) Supernatant [3]: 199 mU/ml culture | L-arabinosidase (mU/ml culture) Whole broth [3]: 500 mU/ml culture | time of maximum enzyme production, Supernatant (figure in parenthesis) [3]: 48 | time of maximum enzyme production, Whole broth (figure in parenthesis) [3]: 58 | share of the whole culture broth α-L-AFase activity that is extracellular [3]: 40% | Ki [6]: 16.4 mM | reduction of the hydrolytic activity [7]: 40%

O=C[C@H](O)[C@@H](O)[C@H](O)[C@H](O)CO [glucose]
inhibition of α-L-AFase activity (α-L-AFase [2]; each at 0.11M): did not inhibit
